ChEMBL document CHEMBL1156829 (Proc Natl Acad Sci U S A, 2008)

How the values were obtained:
Plasmodium falciparum [1] = assay: NOVARTIS: Inhibition of Plasmodium falciparum W2 (drug-resistant) proliferation in erythrocyte-based infection assay; format: functional, organism-based; conditions: Plasmodium falciparum, W2; read-out: EC50
[2] = NOVARTIS: Cytotoxicity against human hepatocellular carcinoma cell line (Huh7); format: toxicity, cell-based, Huh-7; conditions: Huh7 cells (hepatocellular carcinoma cell line)
Plasmodium falciparum [3] = assay: NOVARTIS: Inhibition of Plasmodium falciparum 3D7 (drug-susceptible) proliferation in erythrocyte-based infection assay; format: functional, organism-based; conditions: Plasmodium falciparum, 3D7

| Structure (SMILES) | EC50 (Plasmodium falciparum [1]) [nM] | CC50 [2] [nM] | EC50 (Plasmodium falciparum [3]) [nM] |
| --- | --- | --- | --- |
| CSc1nnc(-c2cccc([N+](=O)[O-])c2)n1Cc1ccccc1 | 495 | > 100000 | 652 |
| CC(C)NC(=O)c1cc(NC(=O)c2cccs2)ccc1N1CCc2ccccc2C1 | 479 | 16300 | 1260 |
| Cc1cc(=O)oc2c1ccc1oc(C(=O)c3ccccc3)c(C)c12 | 392 | > 100000 | 441 |
| CC(C)CCNC(=O)CN1C(=O)c2cccnc2Oc2ccccc21 | 1500 | > 100000 | 4050 |
| CN(C)c1cc[n+](CC(=O)Nc2ccc(Cl)cc2)cc1 | 897 | > 100000 | 549 |
| CCN1CCN(C(=O)CS(=O)(=O)Cc2nc(-c3cccc(OC)c3)oc2C)CC1 | > 712 | > 10000 | > 1250 |
| CCC(NC1CCCCC1)c1nc2ccccc2c(=O)n1C (stereo unspecified) | 888 | > 10000 | 1110 |
| CN(CCCNc1ccnc2cc(Cl)ccc12)C(=O)C12CC3CC(CC(C3)C1)C2 | 184 | 14100 | 53 |
| Cc1cc(O)ccc1-c1cnc2ccccc2n1 | 241 | > 10000 | > 541 |
| COc1ccc(Nc2nc(NN=Cc3cc([N+](=O)[O-])ccc3OC)nc(Nc3ccc([N+](=O)[O-])cc3)n2)cc1 | 762 | > 100000 | 728 |
| CCOc1ccc(C2c3[nH]c4ccccc4c3CCN2C(=O)c2cc3cc(Br)ccc3o2)cc1 (stereo unspecified) | 135 | > 100000 | 316 |
| Cc1ccc(NC(=O)C2c3ccccc3C(=O)N(CC(C)C)C2c2cccs2)c(Cl)c1 (stereo unspecified) | 191 | > 100000 | 305 |
| CN(C)CCN1CCN(c2cncc(-c3cccnc3)n2)CC1 | > 1250 | > 10000 | > 1110 |
| COc1cc(C2CC(=O)NC(C)=C2C(=O)OC(C)C)c(OC)cc1Br (stereo unspecified) | 242 | > 100000 | 1030 |
| Cc1ccc(-c2nc(CS(=O)(=O)CC(=O)NC3CCC(C)CC3)c(C)o2)cc1 (stereo unspecified) | > 244 | > 10000 | > 1250 |
| CCNc1nc(NC(C)(C)C)nc(N2CCCC2)n1 | 802 | > 100000 | 1450 |
| C[C@@H]1CCC[C@@H](C[C@H]2Cc3cc(O)cc(O)c3C(=O)O2)O1 | 92.7 | > 100000 | 45.4 |
| N#CC(=Cc1ccccc1OCc1ccc(Cl)cc1Cl)c1nc2ccccc2[nH]1 | 717 | 5050 | 1130 |
| O=C(NCc1ccccc1)C(c1ccc(F)cc1)N(Cc1ccco1)C(=O)c1cnccn1 (stereo unspecified) | 2520 | > 100000 | > 8940 |
| Cc1ccccc1[S+]([O-])Cc1ccc(C(=O)N2CCN(c3ccccn3)CC2)o1 (stereo unspecified) | 1660 | > 42000 | > 7130 |
| CCC(c1nc2ccccc2c(=O)n1-c1ccccc1OC)N(CCc1ccccc1)C(=O)Nc1ccccc1OC (stereo unspecified) | 366 | > 10000 | 1030 |
| Oc1ccc(-c2ccc3c(c2)OCO3)cc1CNC1CCN(Cc2ccccc2)CC1 | 364 | 29900 | 598 |
| CN(C)c1ccc(/C=C/c2cc(/C=C/c3ccc(N(C)C)cc3)[n+]3ccccc3n2)cc1 | 811 | > 10000 | 1340 |

| Structure (SMILES) | EC50 (Plasmodium falciparum [1]) [nM] | CC50 [2] [nM] | EC50 (Plasmodium falciparum [3]) [nM] |
| --- | --- | --- | --- |
| CCCc1c2ccc(C)n2cc[n+]1CC(=O)c1ccc(OC)cc1 | 1230 | > 100000 | 806 |
| CCOC(=O)c1c(NC(=O)c2ccccc2)sc2c(O)c(CN(CC)CC)ccc12 | 8.44 | > 46800 | 267 |
| COc1cc(Br)c(C2CC(=O)Nc3ccc4ccccc4c32)cc1OC (stereo unspecified) | 307 | 34400 | 386 |
| CCOC(=O)c1cc(-c2ccc(Cl)cc2Cl)[nH]c1N1CCN(c2ccc(OC)cc2)CC1 | > 1730 | > 13400 | 1370 |
| O=C(CSc1nccn1C1CCCC1)Nc1cc(C(F)(F)F)ccc1Cl | 714 | > 100000 | 545 |
| Cc1cccc(NC(=O)c2cc(Cl)nc3ccccc23)c1 | 1940 | > 100000 | 3670 |
| COc1cccc(CCOc2ccc3c(c2)C(=O)N(C(C(=O)NC(C)(C)C)c2cccc(OC)c2)C(CO)C(=O)N3)c1 (stereo unspecified) | 169 | > 9100 | 153 |
| CCN(CC)CCN1C(=O)c2ccccc2NC1c1ccc(C)cc1 (stereo unspecified) | 1050 | > 100000 | 858 |
| CCN(CC)CCNc1ccnc2ccc([N+](=O)[O-])cc12 | 115 | > 100000 | 89.8 |
| Cc1nc(-c2nc3c(s2)CN(C(=O)c2ccncc2)CC3)cs1 | 144 | > 10000 | 163 |
| CC(C)Cc1nc(N2CCOCC2)c2nnn(Cc3ccccc3)c2n1 | 1650 | > 100000 | 3030 |
| Cc1noc(C)c1S(=O)(=O)N(Cc1ccccc1)CC(O)CN1CCC(NC(=O)c2cccc3ccccc23)C1 (stereo unspecified) | < 6.52 | > 10000 | 127 |
| Cc1cnc(NC(=O)Nc2ccc(-c3ccc(NC(=O)Nc4ncc(C)s4)c(C)c3)cc2C)s1 | 76.7 | > 10000 | 34.1 |
| CCOC(=O)c1c(NC(=O)CSc2nnc(CNC(=O)c3ccc(C)c(C)c3)n2C2CCCCC2)sc2c1CCC2 | > 1400 | > 10000 | > 1090 |
| CCN1CCN(CC=Cc2ccccc2[N+](=O)[O-])CC1 | > 9690 | > 100000 | > 12500 |
| COc1cccc(-c2cn3c(n2)sc2cc(C(=O)NC4CCN(Cc5ccccc5)CC4)ccc23)c1 | 1980 | > 100000 | 513 |
| CCC1CCCCN1C(=O)C1CC(=O)N(c2ccc(OC)cc2)C1c1ccc(OC)cc1 (stereo unspecified) | 394 | > 100000 | 387 |
| Cn1ccnc1C(=O)NNc1ncc(C(F)(F)F)cc1Cl | 359 | 1150 | 609 |
| COc1cc(C2C(C(=O)OCC(C)C)=C(C)NC3=C2C(=O)CC(c2ccccc2)C3)cc(Br)c1O (stereo unspecified) | 911 | > 100000 | 850 |
| CCCCCCc1ccc(C(=O)N(C)CCCNc2ccnc3cc(Cl)ccc23)cc1 | 219 | > 10800 | 670 |
| COc1cccc(-c2ccc(O)c(CN3CCCCC3)c2)n1 | 54.7 | > 95800 | 469 |
| COC(=O)c1ccc(N(C(=O)Cc2c[nH]c3ccccc23)C(C(=O)NC2CCCCC2)c2cccnc2)cc1 (stereo unspecified) | 132 | > 100000 | 232 |
| O=C1c2ccccc2-c2nnc(-c3ccc(Br)cc3)cc21 | 1890 | > 100000 | > 2500 |

| Structure (SMILES) | EC50 (Plasmodium falciparum [1]) [nM] | CC50 [2] [nM] | EC50 (Plasmodium falciparum [3]) [nM] |
| --- | --- | --- | --- |
| CCC(C)OC(=O)C1=C(C)NC2=C(C(=O)CC(c3ccc(OC)cc3)C2)C1c1ccc(O)cc1 (stereo unspecified) | 31.2 | > 100000 | 500 |
| CCN(CC)CCCN(Cc1cc2cc(OC)c(OC)cc2[nH]c1=O)C(=S)Nc1cccc(Cl)c1 | 707 | 18900 | 698 |
| CCC[n+]1cccc2ccc3cccnc3c21 | 756 | 44300 | 210 |
| Cc1nc2ccccc2c(O)c1CC=C(Cl)Cl | 514 | > 100000 | 498 |
| CCOc1ccc(Nc2cc(C)nc3ccc(OCC)cc23)cc1 | 20.3 | > 10000 | > 1250 |
| CC=C[C@H]1O[C@@](O)([C@H](C)C(O)C(C)[C@@H]2OC(=O)C(OC)=CC(C)=C[C@H](C)[C@H](O)[C@H](CC)[C@H](O)C(C)CC(C)=CC=C[C@H]2OC)C[C@@H](O[C@@H]2C[C@H](O)[C@@H](OC(N)=O)[C@H](C)O2)[C@@H]1C (stereo partly specified) | < 18.6 | > 10000 | > 503 |
| O=C(Nc1ccc(NC2=NCCN2)cc1)c1ccc(C(=O)Nc2ccc(NC3=NCCN3)cc2)cc1 | 25.6 | > 10000 | 166 |
| CCOc1ccc(NC(=O)C(C)CSc2nc3ccc(NC(=O)CC)cc3s2)cc1 (stereo unspecified) | 1480 | > 100000 | > 12500 |
| COC(=O)c1ccc(C2C3=C(O)CC(c4ccc(F)cc4)CC3=Nc3ccccc3N2C(=O)c2ccccc2)cc1 (stereo unspecified) | 290 | > 100000 | 332 |
| COc1cc2c(cc1OC)C(CCCCCl)=NC(C)(C)C2 | > 12500 | > 100000 | 343 |
| CCCCCCCn1c2c(c(=N)c3c1CCC3)CCCC2 | 91.4 | 2720 | 69.3 |
| COC(=O)c1ccc(N(C(=O)Cc2c[nH]c3ccccc23)C(C(=O)NC2CCCCC2)c2ccccc2F)cc1 (stereo unspecified) | 197 | > 100000 | 200 |
| COc1ccc([N+](=O)[O-])cc1-c1ccc(/C=C(\C#N)c2nn(CCO)c(N)c2C#N)o1 | 607 | > 10000 | 880 |
| CCCCN1C(=O)/C(=C/N(C(=O)CC)c2ccccc2)SC1=S | > 853 | > 10000 | > 699 |
| CC1CC2=C(CC1CNCCCN(C)C)C(C)(C)CCC2 (stereo unspecified) | 844 | > 10000 | 250 |
| COCC(=O)Oc1ccccc1-c1nc2cc(C)ccn2c1NC(C)(C)CC(C)(C)C | < 9.15 | > 6200 | 799 |
| CCN(CC)CCCNC(=S)N(CCN(C)C)Cc1cc2cc(C)cc(C)c2[nH]c1=O | 2000 | > 100000 | 2420 |
| CCOC(=O)c1cnc2ccc3c(c(C)c(C)n3C)c2c1O | 370 | > 10000 | 370 |
| O=C(NCc1ccco1)C1CCN(S(=O)(=O)c2ccc(Cl)cc2)CC1 | 355 | > 100000 | 514 |
| C=CCNc1ncnc2c1c(-c1ccccc1)cn2-c1ccccc1 | 5220 | > 100000 | 4520 |
| O=c1c(=Cc2ccc(-c3ccc([N+](=O)[O-])cc3Cl)o2)sc2nc3ccccc3n12 | > 1250 | > 10000 | > 1130 |
